# Laboratory results published in a melting point compilation (Tetko et al.; mined from patent text by program, amines drawn as free bases though some values may be those of a salt).
row,Compound,melting point [°C]
1,Nc1ccsc1C(=O)NC/C=C\COc1cc(CN2CCCCC2)ccn1,138 to 140
2,O=S(=O)(Cl)c1sc(Cl)c(Cl)c1Cl,56
3,CSC(=NC#N)N(C)N=Cc1ccccc1,132 to 133
4,O=C1c2ccccc2C(=O)c2c1cc(CO)c1c2CCC1,191 to 192
5,CCc1cccc2c(/C=C(/C)C(=O)O)cc(OC)c(O)c12,127 to 128
6,CC(Oc1ccc(Cl)cc1Cl)c1nnc(N=C=O)s1 (configuration not stated),176 to 179
7,COc1cc(/C(C#N)=C/c2ccc(Cl)c([N+](=O)[O-])c2)cc(OC)c1OC,198 to 199
8,CN(C)C(=O)C1(N2C(=O)c3cccc(Cl)c3C2=O)CCCCC1,135 to 137
9,CCOC(=O)CCNC(=O)NC1CCN(c2ccc(C(=N)NOC(=O)OCC(Cl)(Cl)Cl)cc2)C1=O (configuration not stated),196 to 198
10,COC(=O)CCC/C=C(\c1cc(C)c(OC)c(C(=O)OC)c1)c1cc(C)c2oc(=O)n(C)c2c1,120
11,O=C(O)CCCC#CCNS(=O)(=O)c1ccc(Cl)cc1,91 to 93
12,CCCc1nn(-c2ccc(C(F)(F)F)cn2)cc1CCCCn1cc(CCC(=O)O)c(-c2ccc(F)cc2)n1,119 to 121
13,CCCCC[C@H]1CC[C@H](C=CCCc2ccc(O)cc2)CC1,89 to 90
14,Cc1ccc(C=CC(C#N)=NO)cc1,135 to 137
15,COc1ccc(C(C)(O)C(F)(F)F)c(CCO)c1 (configuration not stated),110 to 111
16,Cc1oc(-c2ccccc2)nc1COc1ccc2cc(CCCCc3nnn[nH]3)oc2c1,114 to 115
17,COC(=O)C(O)C(CC(C)C)NC(=O)C(Cc1c[nH]cn1)NC(=O)C(CC(=O)N(C)C)Cc1cccc2ccccc12 (mixture of isomers),117 to 121
18,COC1=CC=C2C3Cc4ccc(O)c5c4C2(CCN3C)C1O5 (configuration not stated),114 to 116
19,CSC(=NC(=O)COC(C)=O)N(C)N=Cc1ccccc1,115 to 117
20,CN(C)CCCOc1ccc2c(c1)C(c1ccccc1)CC(=O)N2 (configuration not stated),134 to 136
21,CC1(C)OC(=S)Nc2ccc(-c3cc(F)cc(C(F)(F)F)c3)cc21,204 to 206
22,CCCN(CCC)c1nc(C#N)c(C#N)nc1CC,58 to 60
23,COC12CC(C)(C)C(O1)C(=O)CC2C (configuration not stated),38 to 39

row,Compound,melting point [°C]
1,CC1CN(CC(C)C(O)c2ccc(C(C)(C)C)cc2)CC(C)O1 (configuration not stated),49 to 50
2,CSc1ccc(OC(C)c2ccnc3ncnn23)cc1 (configuration not stated),84 to 86
3,O=c1[nH]ncnc2c1ccc1ncnc12,266 to 268
4,CNC(Cc1ccc(C(F)(F)F)cc1N)c1sccc1C (configuration not stated),52 to 54
5,CS(=O)(=O)OCCc1ccc(OCc2ccccc2)cc1,48 to 50
6,Clc1ccc2ncn3cnnc3c2c1,179 to 182
7,COCCc1cc(O)ccc1N,82
8,COc1ccc(C(Cl)=NO)cc1,87.5 to 89.5
9,CC(=O)Oc1cc(C)cc(C(=O)N[C@@H](Cc2ccccc2)[C@H](O)C(=O)O)c1C,220 to 224
10,O=S(=O)(/C=C/c1ccsc1)CS(=O)(=O)/C=C/c1ccsc1,150 to 152
11,Cc1cc([N+](=O)[O-])c(O)c(Cl)c1C,62 to 63
12,CCOC(=O)c1cc(Cl)c(-n2nc(CC)c(C(N)=O)c2N)c(Cl)c1,194 to 196
13,O=c1oc2c(c(O)c1C(c1ccccc1)C1CC1)CCCCCC2CC1CCOC1 (configuration not stated),80 to 84
14,CCCCCCc1cc2c(cc1OCCCC(=O)O)C(=O)CCC2,81
15,COc1nc(C(F)(F)F)cc(=O)n1-c1cc(OCCON=C(C)C)c(Cl)cc1F,136 to 138
16,COC(=O)CC(=O)CN1C(=O)c2ccccc2C1=O,139 to 140
17,Cc1cc(C)cc(-c2c(O)c3ccc(Cl)cc3[nH]c2=O)c1,369
18,CCCCCCCCCCCCNC(=O)c1cc(Br)c(OCCn2ccnn2)c(-c2cccc(C(F)(F)F)c2)c1,70.5 to 72.5
19,O=C(N(C1CCNCC1)C1CC1)N1N=C2c3cc(F)ccc3OC[C@@H]2[C@@H]1c1ccccc1 (racemic),142
20,CC(C(O)CCC(C)(C)C)C1CCC2C3CC=C4CC(O)CCC4(C)C3CCC12C (configuration not stated),191 to 193
21,CCCCOc1ccc2c(c1)C(N(CCCO)S(C)(=O)=O)CC(C)(C)O2 (configuration not stated),69 to 71
22,COc1cc(N)c(Cl)cc1C(=O)NC1CCN(CC2CCN(C(=O)N(C)C)CC2)CC1,124 to 126
23,CCCC(=O)C1=C(n2cccn2)CC(C2CCCSC2)CC1=O (configuration not stated),127

row,Compound,melting point [°C]
1,CC(=O)C1=Cc2cc(Br)ccc2OC1,70
2,O=S(=O)(Nc1ccc(Cl)cc1C=NOCc1ccc(C(F)(F)F)cc1C(F)(F)F)C(F)(F)F,65 to 67
3,CCn1cnc2c(Nc3cccc(C(F)(F)F)c3)nc(Cl)nc21,129 to 130
4,CC(C)=CCOC1(C(F)(F)F)CN(C2CC2)C(=O)Nc2ccc(Cl)cc21 (configuration not stated),130 to 131
5,CC(C)(Cn1cnc2c(N)nc3ccccc3c21)OCCS(C)(=O)=O,261 to 264
6,Cc1ccc(NC(C)CC(=O)NC(=O)OC(C)(C)C)cc1 (configuration not stated),84 to 85
7,OCCc1coc2c(OC3CCCCO3)cccc12 (configuration not stated),74 to 76
8,CC(C)c1cc(C=C2NC(=S)NC2=O)cc(C(C)C)c1O,225 to 230
9,O=C(O)COCCc1ccc(F)cc1,82 to 85
10,CCOC(=O)c1cc(CCc2cc3c(s2)-n2c(C)nnc2CN=C3c2ccccc2Cl)ccc1CC(=O)O,128 to 132
11,C=C[C@H]1C(=O)N(C)[C@H](C(C)(C)C)N1C(=O)c1ccccc1,169 to 171
12,CCCc1c(OCCCCCc2ccc3cc(OC)c(OC)cc3c2)ccc(C(=O)O)c1O,135 to 137
13,COc1ccnc(CCc2nc3cc(-c4ccc(S(=O)(=O)Nc5ccccc5OC)cc4)cnc3[nH]2)c1,215 to 216
14,COCc1sc(N)nc1C,132 to 135
15,O=c1cc(CCCl)c2ccccc2[nH]1,186 to 187
16,CC(C)(CO)C(O)(Cn1cncn1)c1ccc(Cl)cc1 (configuration not stated),120 to 135
17,CC1CN(CC(N)=O)C(=O)N1 (configuration not stated),124
18,CCOC(=O)CN(C)C(=S)CCc1nc2c(F)c(F)cc(F)c2s1,83 to 85
19,C=CCSc1nc(O)nn1CC,74 to 76
20,CCCN(CCC)Cc1noc(-c2ncn3c2[C@@H]2CCCN2C(=O)c2c(Cl)cccc2-3)n1,155 to 158
21,CCc1cc(=O)oc2cc(O)cc(O)c12,241 to 243

# Now from value to compound:
row,melting point [°C],Compound
1,220 to 222,Cc1ccc(-c2cccc(/C=C/C(=O)Nc3ccc(-c4ccccn4)cc3)c2)cc1
2,83 to 85,Cc1cccc(-c2ccc(NC(=O)OC(C)(C)C)c([N+](=O)[O-])c2)c1
3,86.5 to 88,CC(C)n1nc(C(Cl)C(=O)c2ccc(F)cc2)ccc1=O (configuration not stated)
4,110 to 111,CCC(O)(c1ccc(OCCCN2CCCCC2)cc1)c1ccccc1OC (configuration not stated)
5,158 to 160,C#CC1(OC(=O)c2ccccc2)C(COC(=O)c2ccc(Cl)cc2)OC(n2ccc(=O)[nH]c2=O)C1OC(=O)c1ccccc1 (configuration not stated)
6,151 to 152,COC(=O)c1cc(-c2ccncc2)cc2c1OC(c1ccccc1)(c1ccccc1)O2
7,195 to 197,CCc1nc2c3c(c(C(=O)N(C)C)c(-c4ccccc4)c2n1C)CCCO3
8,136 to 138,CC(C)(CO)Nc1nc(-c2ccccc2)nc2ccccc12
9,124 to 126,COc1ccc(-c2ccc(C(C)=O)cc2[N+](=O)[O-])cc1
10,94,ClCCOc1ccc2ccccc2c1
11,144 to 146,Cc1cc(Cl)ccc1Oc1ccc([N+](=O)[O-])cc1C#N
12,279 to 280,N#Cc1c(C(N)=O)c2n(c1C1CC1)CCN(C(=O)Nc1ccc(C(=O)O)cc1)C2
13,115 to 118,Nc1ccc2nc3n(c2c1)CC(C(=O)OCc1ccccc1)NC3 (configuration not stated)
14,186 to 189,O=C(NC=C(c1ccccc1)c1ccccc1)c1sc2ccc(F)cc2c1O
15,174 to 176,Cc1ccc(-n2nc(C#N)cc2-c2ccc(S(C)(=O)=O)cc2)cc1Cl
16,164 to 169,CN1CCC(C(O)(c2ccc(F)cc2)c2ccc3ccccc3c2)CC1 (configuration not stated)
17,80 to 84,CN1CCN(C(=O)CC2(C)OCCc3c2[nH]c2ccccc32)CC1 (configuration not stated)
18,157 to 158,O=C(c1ccccc1)N1CCC(C(Nc2ccc(F)cc2)c2ccc(F)cc2)CC1 (configuration not stated)

row,melting point [°C],Compound
1,182 to 184,N=C(Nc1ccc(Cl)cc1)Nc1ncccc1OCc1ccc(F)cc1F
2,190,Cc1cc(COc2ccc(C(=O)NC[C@@H](C(=O)NO)N3CCCCC3)cc2)c2ccccc2n1
3,77 to 82,CC(C)(C)OC(=O)NNCc1ccc(Cl)cc1
4,160 to 162,COC(=O)c1ccc(-c2ccc(-c3ccccc3)c(-c3ccc4c(c3)C(C)(C)CCC4(C)C)c2)cn1
5,153 to 154,O=C(c1cc(Br)c(O)c(Br)c1)c1c(CCc2ccccc2)oc2ccccc12
6,252 to 254,CCCc1cc(-c2ccc(Cl)cc2)nc2c(C(=O)Nc3cccc(S(N)(=O)=O)c3)cnn12
7,184 to 186,Cc1c(/C=C/C(=O)c2cccc3ccccc23)ncn1C(c1ccccc1)(c1ccccc1)c1ccccc1
8,257 to 259,Cc1ccc2c(NCc3ccc(NC(=O)c4ccc(C)nc4)cc3)nc(Cl)nc2c1
9,281 to 286,O=C(Nc1ccc(Cl)cc1)c1c(O)c2cccnc2n(-c2ccccc2)c1=O
10,132 to 135,CN(C)CC(C(O)c1ccc([N+](=O)[O-])cc1)N1CCC(Cc2ccccc2)CC1 (configuration not stated)
11,175 to 178,CC(C)(C)N(NC(=O)c1ccccn1)C(=O)c1ccc(Cl)c(Cl)c1
12,184 to 185,Cc1cc(C(=O)N2CCC3(CC2)CSC2=C(O3)c3ccccc3C(=O)C2=O)nn1C
13,147 to 149,Cc1c(CCN(C)C(=O)OC(C)(C)C)c2cc(S(=O)(=O)c3ccccc3)ccc2n1C
14,58 to 61,Clc1cnn(CCCCN2CCN(c3ccccc3)CC2)c1
15,108,COc1ccc(-c2nccn2N=Cc2ccc(N(C)C)cc2)cc1
16,174 to 175,CN1CCN(c2cccc3ccc(NC(=O)c4ccc(Cl)cc4)cc23)CC1
17,130 to 135,NCC(=O)c1cccc2c(S(=O)(=O)n3c(CCC(=O)O)cc4cc(Cl)ccc43)cccc12
